Assay results: PubChem BioAssay (NCI)
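Dose response: 5 concentrations. Exposure: 48 h. Format: 96-well plates. Endpoint: linear interpolation; highest concentration if not reached. Here, GI50 denotes the concentration required for 50% inhibition of growth. TGI is the concentration that stops growth completely.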

Tests used:
Assay in all cases: NCI-60 cell line screen, 48 h
[1] = tested on: SN12C renal
[2] = tested on: SF-295 CNS
[3] = tested on: HCT-116 colon
[4] = tested on: HCC-2998 colon
[5] = tested on: NCI-H460 lung
[6] = tested on: DU-145 prostate
[7] = tested on: SF-539 CNS
[8] = tested on: MDA-MB-435
[9] = tested on: SK-MEL-2 melanoma
[10] = tested on: MOLT-4 leukemia
[11] = tested on: BT-549 breast
[12] = tested on: 786-0 renal
[13] = tested on: MALME-3M melanoma
[14] = tested on: UACC-62 melanoma
[15] = tested on: HL-60(TB) leukemia
[16] = tested on: NCI-H23 lung
[17] = tested on: IGROV1 ovarian
[18] = tested on: MDA-MB-231 breast
[19] = tested on: U251 CNS
[20] = tested on: HOP-62 NSCLC
[21] = tested on: SNB-75 CNS
[22] = tested on: OVCAR-3 ovarian
[23] = tested on: HCT-15 colon
[24] = tested on: OVCAR-8 ovarian
[25] = tested on: SK-OV-3 ovarian
[26] = tested on: SW-620 colon
[27] = tested on: KM12 colon
[28] = tested on: LOX IMVI melanoma
[29] = tested on: RXF 393 renal
[30] = tested on: CCRF-CEM leukemia
[31] = tested on: SNB-19 CNS
[32] = tested on: UACC-257 melanoma
[33] = tested on: CAKI-1 renal
[34] = tested on: SK-MEL-28 melanoma
[35] = tested on: ACHN renal
[36] = tested on: SF-268 CNS
[37] = tested on: A498 renal
[38] = tested on: NCI-H226 lung
[39] = tested on: PC-3 prostate
[40] = tested on: UO-31 renal
[41] = tested on: HT29 colon
[42] = tested on: T-47D breast
[43] = tested on: RPMI-8226 leukemia
[44] = tested on: NCI/ADR-RES ovarian
[45] = tested on: OVCAR-4 ovarian
[46] = tested on: OVCAR-5 ovarian
[47] = tested on: A549 NSCLC
[48] = tested on: COLO 205 colon
[49] = tested on: HS 578T breast
[50] = tested on: TK-10 renal
[51] = tested on: MCF7 breast
[52] = tested on: SK-MEL-5 melanoma
[53] = tested on: M14 melanoma
[54] = tested on: NCI-H522 lung
[55] = tested on: SR leukemia
[56] = tested on: K-562 leukemia

In the case of COc1cc(F)c(F)cc1C(=O)c1cnc(NC2CCN(S(C)(=O)=O)CC2)nc1N, the GI50 [1] is reported as 4.49 µM, the TGI [1] is reported as > 25 µM and the GI50 [2] is reported as 2.9 µM. For the same molecule, the TGI [2] was 23.7 µM, the GI50 [3] was 2.16 µM and the TGI [3] was > 25 µM. For the same molecule, the GI50 [4] was 4.32 µM, the TGI [4] was > 25 µM and the GI50 [5] was 1.16 µM. For the same molecule, the TGI [5] was 24.3 µM, the GI50 [6] was 5.66 µM and the TGI [6] was > 21.6 µM. The GI50 [7] was 3.85 µM, the TGI [7] was 11.1 µM and the GI50 [8] was 3.55 µM. For the same molecule, the TGI [8] was > 25 µM, the GI50 [9] was 3.86 µM and the TGI [9] was 12.6 µM. The GI50 [10] was 3.4 µM, the TGI [10] was 20.4 µM and the GI50 [11] was 4.29 µM. For the same molecule, the TGI [11] was 18.6 µM, the GI50 [12] was 5.93 µM and the TGI [12] was > 25 µM. It also gave a GI50 [13] of 2.78 µM, a TGI [13] of 24.2 µM and a GI50 [14] of 3.13 µM. The TGI [14] was 7.63 µM, the GI50 [15] was 2.01 µM and the TGI [15] was 10 µM. For the same molecule, the GI50 [16] was 2.62 µM, the TGI [16] was > 18 µM and the GI50 [17] was 5.11 µM. The TGI [17] was 24.5 µM, the GI50 [18] was 3.04 µM and the TGI [18] was > 25 µM. For the same molecule, the GI50 [19] was 2.42 µM, the TGI [19] was 24.8 µM and the GI50 [20] was 6.17 µM. The TGI [20] was > 22.2 µM, the GI50 [21] was 3.83 µM and the TGI [21] was 10.9 µM. The GI50 [22] was 4.48 µM, the TGI [22] was 15.7 µM and the GI50 [23] was 3.46 µM. The TGI [23] was > 25 µM, the GI50 [24] was 4.43 µM and the TGI [24] was > 25 µM. For the same molecule, the GI50 [25] was 10 µM, the TGI [25] was > 25 µM and the GI50 [26] was 1.27 µM. For the same molecule, the TGI [26] was 24.8 µM, the GI50 [27] was 3.12 µM and the TGI [27] was > 22.4 µM. For the same molecule, the GI50 [28] was 3.16 µM, the TGI [28] was > 20.7 µM and the GI50 [29] was 3.01 µM. For the same molecule, the TGI [29] was 7.18 µM, the GI50 [30] was 4.86 µM and the TGI [30] was 18.8 µM. For the same molecule, the GI50 [31] was 2.32 µM, the TGI [31] was > 25 µM and the GI50 [32] was 3.56 µM. For the same molecule, the TGI [32] was > 22.7 µM, the GI50 [33] was 3.79 µM and the TGI [33] was > 25 µM. The GI50 [34] was 4.08 µM, the TGI [34] was > 25 µM and the GI50 [35] was 3.19 µM. For the same molecule, the TGI [35] was > 23.6 µM, the GI50 [36] was 5.65 µM and the TGI [36] was 20 µM. The GI50 [37] was 4.62 µM, the TGI [37] was 11.9 µM and the GI50 [38] was 3.1 µM. The TGI [38] was 22 µM, the GI50 [39] was 2 µM and the TGI [39] was > 25 µM. The GI50 [40] was 4.75 µM, the TGI [40] was > 19.8 µM and the GI50 [41] was 3.7 µM. For the same molecule, the TGI [41] was > 25 µM, the GI50 [42] was 4.58 µM and the TGI [42] was 23.8 µM. For the same molecule, the GI50 [43] was 3.66 µM, the TGI [43] was > 16.2 µM and the GI50 [44] was 6.48 µM. For the same molecule, the TGI [44] was > 25 µM, the GI50 [45] was 6.4 µM and the TGI [45] was > 25 µM. The GI50 [46] was 2.62 µM, the TGI [46] was > 23.1 µM and the GI50 [47] was 3.18 µM. For the same molecule, the TGI [47] was > 25 µM, the GI50 [48] was 2.42 µM and the TGI [48] was 6.14 µM. For the same molecule, the GI50 [49] was 4.71 µM, the TGI [49] was > 21.8 µM and the GI50 [50] was 2.92 µM. The TGI [50] was 19.3 µM, the GI50 [51] was 0.76 µM and the TGI [51] was > 25 µM. The GI50 [52] was 2.07 µM, the TGI [52] was > 14.4 µM and the GI50 [53] was 4.73 µM. The TGI [53] was > 25 µM, the GI50 [54] was 4.67 µM and the TGI [54] was > 25 µM. The GI50 [55] was 1.23 µM, the TGI [55] was 10.2 µM and the GI50 [56] was 7.29 µM. The TGI [56] was > 25 µM.
